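Exposure lasted 48 hours, with cells grown in 96-well plates and compounds tested at five concentrations. Here, GI50 denotes the concentration required for 50% inhibition of growth. At the TGI there is no net growth.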
Experiments:
Assay in all cases: inhibition of tumour cell growth, NCI panel, 48 h
A498 renal = system: A498 renal
ACHN renal = system: ACHN renal
BT-549 breast = system: BT-549 breast
CCRF-CEM leukemia = system: CCRF-CEM leukemia
DU-145 prostate = system: DU-145 prostate
EKVX NSCLC = system: EKVX NSCLC
HCC-2998 colon = system: HCC-2998 colon
HCT-116 colon = system: HCT-116 colon
HCT-15 colon = system: HCT-15 colon
HL-60(TB) leukemia = system: HL-60(TB) leukemia
HOP-92 NSCLC = system: HOP-92 NSCLC
HS 578T breast = system: HS 578T breast
HT29 colon = system: HT29 colon
IGROV1 ovarian = system: IGROV1 ovarian
K-562 leukemia = system: K-562 leukemia
KM12 colon = system: KM12 colon
MALME-3M melanoma = system: MALME-3M melanoma
MCF7 breast = system: MCF7 breast
MDA-MB-435 = system: MDA-MB-435
MOLT-4 leukemia = system: MOLT-4 leukemia
NCI-H226 lung = system: NCI-H226 lung
NCI-H23 lung = system: NCI-H23 lung
NCI-H460 lung = system: NCI-H460 lung
NCI-H522 lung = system: NCI-H522 lung
NCI/ADR-RES ovarian = system: NCI/ADR-RES ovarian
OVCAR-4 ovarian = system: OVCAR-4 ovarian
OVCAR-5 ovarian = system: OVCAR-5 ovarian
OVCAR-8 ovarian = system: OVCAR-8 ovarian
RPMI-8226 leukemia = system: RPMI-8226 leukemia
RXF 393 renal = system: RXF 393 renal
SF-295 CNS = system: SF-295 CNS
SF-539 CNS = system: SF-539 CNS
SK-MEL-28 melanoma = system: SK-MEL-28 melanoma
SK-MEL-5 melanoma = system: SK-MEL-5 melanoma
SK-OV-3 ovarian = system: SK-OV-3 ovarian
SNB-19 CNS = system: SNB-19 CNS
SNB-75 CNS = system: SNB-75 CNS
SR leukemia = system: SR leukemia
SW-620 colon = system: SW-620 colon
TK-10 renal = system: TK-10 renal
U251 CNS = system: U251 CNS
UACC-257 melanoma = system: UACC-257 melanoma
UACC-62 melanoma = system: UACC-62 melanoma
UO-31 renal = system: UO-31 renal
786-0 renal = system: 786-0 renal
A549 NSCLC = system: A549 NSCLC
CAKI-1 renal = system: CAKI-1 renal
COLO 205 colon = system: COLO 205 colon
HOP-62 NSCLC = system: HOP-62 NSCLC
M14 melanoma = system: M14 melanoma
OVCAR-3 ovarian = system: OVCAR-3 ovarian
SF-268 CNS = system: SF-268 CNS
SK-MEL-2 melanoma = system: SK-MEL-2 melanoma
SN12C renal = system: SN12C renal
T-47D breast = system: T-47D breast

Cc1nn(-c2ccccc2)cc1/C=N/Nc1nc(Nc2ccccc2)nc(Nc2ccc(S(N)(=O)=O)cc2)n1
GI50 (A498 renal): 1.71 µM | TGI (A498 renal): 3.39 µM | GI50 (ACHN renal): 1.9 µM | TGI (ACHN renal): 3.57 µM | GI50 (BT-549 breast): 1.85 µM | TGI (BT-549 breast): 4.56 µM | GI50 (CCRF-CEM leukemia): 2.09 µM | TGI (CCRF-CEM leukemia): > 100 µM | GI50 (DU-145 prostate): 3.06 µM | TGI (DU-145 prostate): 9.48 µM | GI50 (EKVX NSCLC): 2 µM | TGI (EKVX NSCLC): 5.09 µM | GI50 (HCC-2998 colon): 1.88 µM | TGI (HCC-2998 colon): 3.63 µM | GI50 (HCT-116 colon): 2 µM | TGI (HCT-116 colon): 4.52 µM | GI50 (HCT-15 colon): 2.67 µM | TGI (HCT-15 colon): > 100 µM | GI50 (HL-60(TB) leukemia): 2.24 µM | TGI (HL-60(TB) leukemia): 7.67 µM | GI50 (HOP-92 NSCLC): 2.44 µM | TGI (HOP-92 NSCLC): 5.44 µM | GI50 (HS 578T breast): 2.77 µM | TGI (HS 578T breast): 8.1 µM | GI50 (HT29 colon): 2.88 µM | TGI (HT29 colon): > 100 µM | GI50 (IGROV1 ovarian): 2.59 µM | TGI (IGROV1 ovarian): 6.7 µM | GI50 (K-562 leukemia): 2.63 µM | TGI (K-562 leukemia): > 100 µM | GI50 (KM12 colon): 2.84 µM | TGI (KM12 colon): 8.33 µM | GI50 (MALME-3M melanoma): 1.6 µM | TGI (MALME-3M melanoma): 3.13 µM | GI50 (MCF7 breast): 1.55 µM | TGI (MCF7 breast): 3.43 µM | GI50 (MDA-MB-435): 1.77 µM | TGI (MDA-MB-435): 3.46 µM | GI50 (MOLT-4 leukemia): 2.29 µM | TGI (MOLT-4 leukemia): > 100 µM | GI50 (NCI-H226 lung): 1.85 µM | TGI (NCI-H226 lung): 4.34 µM | GI50 (NCI-H23 lung): 1.75 µM | TGI (NCI-H23 lung): 3.62 µM | GI50 (NCI-H460 lung): 2.77 µM | TGI (NCI-H460 lung): 7.38 µM | GI50 (NCI-H522 lung): 2.66 µM | TGI (NCI-H522 lung): 8.27 µM | GI50 (NCI/ADR-RES ovarian): > 100 µM | TGI (NCI/ADR-RES ovarian): > 100 µM | GI50 (OVCAR-4 ovarian): 2.56 µM | TGI (OVCAR-4 ovarian): 7.32 µM | GI50 (OVCAR-5 ovarian): 2.06 µM | TGI (OVCAR-5 ovarian): 5.04 µM | GI50 (OVCAR-8 ovarian): 2.05 µM | TGI (OVCAR-8 ovarian): > 100 µM | GI50 (RPMI-8226 leukemia): 1.66 µM | TGI (RPMI-8226 leukemia): 5.41 µM | GI50 (RXF 393 renal): 1.77 µM | TGI (RXF 393 renal): 3.39 µM | GI50 (SF-295 CNS): 2.23 µM | TGI (SF-295 CNS): 5.94 µM | GI50 (SF-539 CNS): 1.71 µM | TGI (SF-539 CNS): 3.27 µM | GI50 (SK-MEL-28 melanoma): 1.8 µM | TGI (SK-MEL-28 melanoma): 3.46 µM | GI50 (SK-MEL-5 melanoma): 1.48 µM | TGI (SK-MEL-5 melanoma): 2.8 µM | GI50 (SK-OV-3 ovarian): 2.93 µM | TGI (SK-OV-3 ovarian): 6.61 µM | GI50 (SNB-19 CNS): 3.44 µM | TGI (SNB-19 CNS): > 100 µM | GI50 (SNB-75 CNS): 2.69 µM | TGI (SNB-75 CNS): 8.72 µM | GI50 (SR leukemia): 2.45 µM | TGI (SR leukemia): > 100 µM | GI50 (SW-620 colon): 3.38 µM | GI50 (TK-10 renal): 1.48 µM | TGI (TK-10 renal): 3.5 µM | GI50 (U251 CNS): 3.65 µM | TGI (U251 CNS): > 100 µM | GI50 (UACC-257 melanoma): 2.5 µM | TGI (UACC-257 melanoma): 7.43 µM | GI50 (UACC-62 melanoma): 1.78 µM | TGI (UACC-62 melanoma): 3.57 µM | GI50 (UO-31 renal): 1.72 µM | TGI (UO-31 renal): 3.54 µM

Nc1nc(N)c2c(n1)NC(c1ccc(C(F)(F)F)cc1)CC(c1ccc(Nc3nc(NCCO)nc(Nc4ccc(Cl)cc4)n3)cc1)=N2 (stereo not drawn)
GI50 (786-0 renal): 1.39 µM | TGI (786-0 renal): 2.91 µM | GI50 (A498 renal): 1.56 µM | TGI (A498 renal): 2.9 µM | GI50 (A549 NSCLC): 1.73 µM | TGI (A549 NSCLC): 3.5 µM | GI50 (ACHN renal): 1.5 µM | TGI (ACHN renal): 2.82 µM | GI50 (BT-549 breast): 1.57 µM | TGI (BT-549 breast): 3.16 µM | GI50 (CAKI-1 renal): 1.45 µM | TGI (CAKI-1 renal): 2.85 µM | GI50 (CCRF-CEM leukemia): 1.23 µM | TGI (CCRF-CEM leukemia): > 100 µM | GI50 (COLO 205 colon): 1.33 µM | TGI (COLO 205 colon): 2.64 µM | GI50 (DU-145 prostate): 1.51 µM | TGI (DU-145 prostate): 2.84 µM | GI50 (EKVX NSCLC): 1.52 µM | TGI (EKVX NSCLC): 2.96 µM | GI50 (HCC-2998 colon): 1.31 µM | TGI (HCC-2998 colon): 2.62 µM | GI50 (HCT-116 colon): 1.05 µM | TGI (HCT-116 colon): 2.41 µM | GI50 (HCT-15 colon): 1.15 µM | TGI (HCT-15 colon): 2.58 µM | GI50 (HOP-62 NSCLC): 1.63 µM | TGI (HOP-62 NSCLC): 3.16 µM | GI50 (HOP-92 NSCLC): 1.48 µM | TGI (HOP-92 NSCLC): 3.43 µM | GI50 (HT29 colon): 1.36 µM | TGI (HT29 colon): 2.99 µM | GI50 (K-562 leukemia): 0.642 µM | TGI (K-562 leukemia): > 100 µM | GI50 (KM12 colon): 1.37 µM | TGI (KM12 colon): 2.88 µM | GI50 (M14 melanoma): 1.64 µM | TGI (M14 melanoma): 3.06 µM | GI50 (MDA-MB-435): 1.4 µM | TGI (MDA-MB-435): 2.72 µM | GI50 (NCI-H226 lung): 1.84 µM | TGI (NCI-H226 lung): 3.91 µM | GI50 (NCI-H460 lung): 1.96 µM | TGI (NCI-H460 lung): 4.01 µM | GI50 (NCI-H522 lung): 1.34 µM | TGI (NCI-H522 lung): 2.72 µM | GI50 (OVCAR-3 ovarian): 1.32 µM | TGI (OVCAR-3 ovarian): 2.94 µM | GI50 (OVCAR-5 ovarian): 1.6 µM | TGI (OVCAR-5 ovarian): 3 µM | GI50 (OVCAR-8 ovarian): 1.5 µM | TGI (OVCAR-8 ovarian): 2.94 µM | GI50 (RXF 393 renal): 1.14 µM | TGI (RXF 393 renal): 2.5 µM | GI50 (SF-268 CNS): 1.66 µM | TGI (SF-268 CNS): 3.47 µM | GI50 (SF-295 CNS): 1.79 µM | TGI (SF-295 CNS): 3.32 µM | GI50 (SF-539 CNS): 1.56 µM | TGI (SF-539 CNS): 2.97 µM | GI50 (SK-MEL-2 melanoma): 1.67 µM | TGI (SK-MEL-2 melanoma): 3.07 µM | GI50 (SK-MEL-28 melanoma): 1.53 µM | TGI (SK-MEL-28 melanoma): 2.86 µM | GI50 (SK-MEL-5 melanoma): 1.55 µM | TGI (SK-MEL-5 melanoma): 2.89 µM | GI50 (SK-OV-3 ovarian): 1.83 µM | TGI (SK-OV-3 ovarian): 3.45 µM | GI50 (SN12C renal): 1.76 µM | TGI (SN12C renal): 3.34 µM | GI50 (SNB-19 CNS): 1.51 µM | TGI (SNB-19 CNS): 2.95 µM | GI50 (SNB-75 CNS): 1.7 µM | TGI (SNB-75 CNS): 3.93 µM | GI50 (SW-620 colon): 1.6 µM | TGI (SW-620 colon): 3.36 µM | GI50 (T-47D breast): 1.55 µM | TGI (T-47D breast): 3.69 µM | GI50 (TK-10 renal): 1.78 µM | TGI (TK-10 renal): 3.17 µM | GI50 (U251 CNS): 1.24 µM | TGI (U251 CNS): 2.53 µM | GI50 (UACC-257 melanoma): 1.75 µM | TGI (UACC-257 melanoma): 3.19 µM | GI50 (UO-31 renal): 1.43 µM | TGI (UO-31 renal): 2.76 µM

— PubChem BioAssay (NCI)
